Assay results: PubChem BioAssay (NCI)
Several values for one entry are separate records, joined by “and”; a condition that tells them apart may be missing. Identical values can stand only once.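 These data come from cells grown in 96-well plates and exposed to compound for 48 hours at five concentrations. Here, GI50 denotes the concentration required for 50% inhibition of growth. TGI is the concentration that stops growth completely.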

What was measured:
Experiment in all cases: NCI anticancer screen, dose series, 48 h
[1] = test system: CAKI-1 renal
[2] = test system: HCC-2998 colon
[3] = test system: HL-60(TB) leukemia
[4] = test system: HT29 colon
[5] = test system: MDA-MB-231 breast
[6] = test system: NCI-H460 lung
[7] = test system: NCI/ADR-RES ovarian
[8] = test system: OVCAR-3 ovarian
[9] = test system: SK-MEL-2 melanoma
[10] = test system: SNB-75 CNS

`Clc1ccc(N2COOC3(OOC2)C2CC4CC(C2)CC3C4)cc1` showed a GI50 [1] of 299 nM, a TGI [1] of 19.5 µM and a GI50 [2] of over 24.4 µM. It also gave a TGI [2] of over 100 µM, a GI50 [3] of 1550 nM and a TGI [3] of 8.27 µM. The GI50 [4] was 9.93 µM, the TGI [4] was over 60.1 µM and the GI50 [5] was 6.69 µM. It also gave a TGI [5] of over 57.9 µM, a GI50 [6] of 1570 nM and a TGI [6] of 9.27 µM. The GI50 [7] was 5340 nM, the TGI [7] was 74.9 µM and the GI50 [8] was 13200 nM. It also gave a TGI [8] of 39.1 µM, a GI50 [9] of 10.5 µM and a TGI [9] of over 88.3 µM. For the same molecule, the GI50 [10] was 10.8 µM and the TGI [10] was 55.2 µM.

Molecule `O=C1NC(=O)C2=C1CCC2O` (stereo not drawn) has a TGI [1] of over 100 µM, a TGI [2] of over 100 µM and a TGI [3] of over 100 µM. The TGI [4] was over 100 µM, the TGI [5] was over 100 µM and the TGI [6] was over 100 µM. For the same molecule, the TGI [7] was over 100 µM, the TGI [8] was over 100 µM and the TGI [9] was over 100 µM. The TGI [10] was over 100 µM.

Work on `O=P(Oc1ccccc1)(Oc1ccccc1)C(O)c1ccccc1` (stereo not drawn) yielded a GI50 [1] of 66500 nM, a TGI [1] of over 100 µM and a GI50 [2] of over 100 µM. For the same molecule, the TGI [2] was over 100 µM, the GI50 [3] was 60700 nM and the TGI [3] was over 100 µM. It also gave a GI50 [4] of 78.1 µM, a TGI [4] of over 100 µM and a GI50 [5] of 71.3 µM. For the same molecule, the TGI [5] was over 100 µM, the GI50 [6] was over 100000 nM and the TGI [6] was over 100 µM. The GI50 [7] was over 100000 nM, the TGI [7] was over 100 µM and the GI50 [8] was 43900 nM. The TGI [8] was over 100 µM, the GI50 [9] was 81.4 µM and the TGI [9] was over 100 µM. For the same molecule, the GI50 [10] was 34.4 µM and the TGI [10] was over 100 µM.

For `OCc1ccc(N(Cc2ccc(F)cc2)C2CCC2)cc1Cl`, the GI50 [1] was 619 nM, the TGI [1] was 4.02 µM and the GI50 [2] was 5.42 µM. For the same molecule, the TGI [2] was 22.7 µM, the GI50 [3] was 5700 nM and the TGI [3] was 25.5 µM. For the same molecule, the GI50 [4] was 3.89 µM, the TGI [4] was 15.3 µM and the GI50 [5] was 14.9 µM. The TGI [5] was 28.6 µM, the GI50 [6] was 275 nM and the TGI [6] was 10.2 µM. For the same molecule, the GI50 [7] was 12700 nM, the TGI [7] was 27.8 µM and the GI50 [8] was 403 nM. For the same molecule, the TGI [8] was 2.05 µM, the GI50 [9] was 4.89 µM and the TGI [9] was 20.1 µM. For the same molecule, the GI50 [10] was 12.2 µM and the TGI [10] was 24.8 µM.

With `O=C(Nc1cccc(NS(=O)(=O)c2ccc(F)cc2)c1)c1ccc(-c2ccccc2)cc1` the GI50 [1] was 3740 nM, the TGI [1] was over 100 µM and the GI50 [2] was 3.48 µM. The TGI [2] was 24.4 µM, the GI50 [3] was 3370 nM and the TGI [3] was 12.9 µM. It also gave a GI50 [4] of 4.85 µM, a TGI [4] of 18.6 µM and a GI50 [5] of 3.61 µM. The TGI [5] was 18 µM, the GI50 [6] was 3420 nM and the TGI [6] was 14.7 µM. The GI50 [7] was 2750 nM, the TGI [7] was 11.3 µM and the GI50 [8] was 2990 nM. For the same molecule, the TGI [8] was 15.3 µM, the GI50 [9] was 2.42 µM and the TGI [9] was 7.88 µM. The GI50 [10] was 6.07 µM and the TGI [10] was 44 µM.

`O=C1c2cccnc2-c2nc(-c3ccccn3)cc3c2c1nc1ccccc13` gave a GI50 [1] of 119 nM, a TGI [1] of 0.781 µM and a GI50 [2] of 0.412 µM. It also gave a TGI [2] of 1.48 µM, a GI50 [3] of 66 nM and a GI50 [4] of 0.85 µM. The TGI [4] was 2.95 µM, the GI50 [5] was 0.185 µM and the TGI [5] was 0.5 µM. The GI50 [6] was 61.6 nM, the TGI [6] was 0.268 µM and the GI50 [7] was 208 nM. The TGI [7] was 0.658 µM, the GI50 [8] was 161 nM and the TGI [8] was 0.309 µM. The GI50 [9] was 1.06 µM, the TGI [9] was 2.52 µM and the GI50 [10] was 1.69 µM. For the same molecule, the TGI [10] was 3.81 µM.

Molecule `O=c1oc2ccccc2cc1-c1ccc([N+](=O)[O-])cc1` has a TGI [1] of over 100 µM, a TGI [2] of over 100 µM and a TGI [3] of over 100 µM. The TGI [4] was over 100 µM, the TGI [5] was over 100 µM and the TGI [6] was over 100 µM. It also gave a TGI [7] of over 100 µM, a TGI [8] of over 100 µM and a TGI [9] of over 100 µM. It also gave a TGI [10] of over 100 µM.

Work on `Cc1ccc2c(/C=C/C(=O)c3cc(CN4CCOCC4)c(O)c4nc(C)ccc34)cc(CN3CCOCC3)c(O)c2n1` yielded a GI50 [1] of 297 nM, a TGI [1] of 1.53 µM and a GI50 [2] of 1.1 µM. The TGI [2] was 2.76 µM, the GI50 [3] was 272 nM and the TGI [3] was 0.677 µM. The GI50 [4] was 1.64 µM, the TGI [4] was 3.39 µM and the GI50 [5] was 1.44 µM. The TGI [5] was 5.2 µM, the GI50 [6] was 385 nM and the TGI [6] was 9.37 µM. The GI50 [7] was 162 nM, the TGI [7] was over 100 µM and the GI50 [8] was 875 nM. The TGI [8] was 4.6 µM, the GI50 [9] was 0.623 µM and the TGI [9] was 13.1 µM. For the same molecule, the GI50 [10] was 0.938 µM and the TGI [10] was 16.6 µM.

Work on `CC(C)(C)[Si](C)(C)OC1[C@@H](O[Si](C)(C)C(C)(C)C)[C@@H](CNC(=O)NC(=O)NC(=O)CI)O[C@H]1n1cnc2c(NC(=O)Nc3ccccc3)ncnc21` (stereo partly drawn) yielded a GI50 [1] of 96.6 nM, a TGI [1] of 0.406 µM and a GI50 [2] of 8.22 µM. For the same molecule, the TGI [2] was 17.8 µM, the GI50 [3] was 84.5 nM and the TGI [3] was 0.166 µM. It also gave a GI50 [4] of 0.225 µM, a TGI [4] of 0.771 µM and a GI50 [5] of 0.251 µM. The TGI [5] was 0.995 µM, the GI50 [6] was 4790 nM and the TGI [6] was 21.7 µM. For the same molecule, the GI50 [7] was 909 nM, the TGI [7] was 3.41 µM and the GI50 [8] was 215 nM. It also gave a TGI [8] of 0.62 µM, a GI50 [9] of 8.07 µM and a TGI [9] of 17.7 µM. The GI50 [10] was 0.651 µM and the TGI [10] was 3.17 µM.

For `CC1/C=C/C=C/CC/C=C/C=C/C=C/C=C/C(OC2OC(C)C(O)C(N)C2O)CC2OC(CC(O)C(O)CCC(O)CC(O)CC(O)CC(=O)OC(C)C(C)C1O)CC(O)C2C(=O)O` (stereo not drawn), the GI50 [1] was 23.5 µg/mL, the TGI [1] was 31.8 µM and 44.5 µg/mL and the GI50 [2] was 19.1 µg/mL. The TGI [2] was 30.8 µM and 44.6 µg/mL, the TGI [3] was 45.1 µM and the GI50 [4] was 37.2 µg/mL. The TGI [4] was 32.8 µM and 84.8 µg/mL, the GI50 [5] was 29.4 µg/mL and the TGI [5] was 39.4 µM and 69.2 µg/mL. For the same molecule, the GI50 [6] was 30.4 µg/mL, the TGI [6] was 39.7 µM and 87.7 µg/mL and the GI50 [7] was 41 µg/mL. For the same molecule, the TGI [7] was 45.2 µM and 93.8 µg/mL, the GI50 [8] was 101 µg/mL and the TGI [8] was 37.2 µM and 150 µg/mL. The GI50 [9] was 31.8 µg/mL, the TGI [9] was 92.4 µM and 94.1 µg/mL and the GI50 [10] was 58.2 µg/mL. For the same molecule, the TGI [10] was 40.6 µM and 150 µg/mL.
